According to patent publication US10214519B2, “Phosphatidylinositol 3-kinase inhibitors” (Gilead Sciences, Inc., priority 2016, dated 2019):

Biological target: PI3Kβ (Homo sapiens (Human), UniProt P42338)
Test: PI3K isoform TR-FRET enzymatic assay (PI3Kβ)
Assay type: biochemical
Settings: 2× Km ATP, 30 minutes at 25° C.
In short: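 IC50 came from four-parameter dose-response fits, normalized between DMSO and 1 μM wortmannin controls. The read-out was TR-FRET (615/665 nm) of PIP3 displacing fluorescent PIP3 from Europium GRP-1 after 10 mM EDTA termination. Compounds were incubated with purified heterodimeric PI3Kβ for 30 min at 25° C.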

Sequence of PI3Kβ (P42338 whole entry, canonical isoform): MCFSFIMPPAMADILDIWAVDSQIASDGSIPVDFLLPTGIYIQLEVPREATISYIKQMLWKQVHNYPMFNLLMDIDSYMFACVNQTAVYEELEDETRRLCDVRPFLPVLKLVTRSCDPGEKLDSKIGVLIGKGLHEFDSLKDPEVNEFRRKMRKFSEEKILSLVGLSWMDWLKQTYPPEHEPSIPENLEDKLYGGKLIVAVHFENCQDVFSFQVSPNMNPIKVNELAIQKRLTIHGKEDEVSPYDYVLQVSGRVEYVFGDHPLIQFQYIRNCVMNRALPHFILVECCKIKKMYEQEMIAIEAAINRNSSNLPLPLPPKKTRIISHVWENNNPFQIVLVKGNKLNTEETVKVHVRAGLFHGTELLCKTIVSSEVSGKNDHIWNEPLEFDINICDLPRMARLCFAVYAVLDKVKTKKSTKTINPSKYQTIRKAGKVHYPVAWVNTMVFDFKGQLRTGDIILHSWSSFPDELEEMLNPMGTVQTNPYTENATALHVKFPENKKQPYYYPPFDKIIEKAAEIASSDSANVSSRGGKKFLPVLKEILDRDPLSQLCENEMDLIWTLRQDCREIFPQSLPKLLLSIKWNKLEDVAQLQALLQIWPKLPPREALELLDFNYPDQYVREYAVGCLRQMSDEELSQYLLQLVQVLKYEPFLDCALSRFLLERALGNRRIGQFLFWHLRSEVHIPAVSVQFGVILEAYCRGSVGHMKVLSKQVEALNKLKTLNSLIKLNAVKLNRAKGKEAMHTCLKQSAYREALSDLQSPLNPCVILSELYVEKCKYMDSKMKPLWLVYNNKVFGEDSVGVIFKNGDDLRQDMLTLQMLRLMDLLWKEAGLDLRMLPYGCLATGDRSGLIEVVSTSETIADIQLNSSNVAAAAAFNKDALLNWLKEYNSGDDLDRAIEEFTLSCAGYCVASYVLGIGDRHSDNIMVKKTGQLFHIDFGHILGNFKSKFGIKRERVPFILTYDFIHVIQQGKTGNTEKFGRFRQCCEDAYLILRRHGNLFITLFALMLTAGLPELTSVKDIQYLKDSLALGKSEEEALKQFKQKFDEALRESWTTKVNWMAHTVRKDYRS
Sequence of PI3Kβ (P27986 whole entry partner, canonical isoform): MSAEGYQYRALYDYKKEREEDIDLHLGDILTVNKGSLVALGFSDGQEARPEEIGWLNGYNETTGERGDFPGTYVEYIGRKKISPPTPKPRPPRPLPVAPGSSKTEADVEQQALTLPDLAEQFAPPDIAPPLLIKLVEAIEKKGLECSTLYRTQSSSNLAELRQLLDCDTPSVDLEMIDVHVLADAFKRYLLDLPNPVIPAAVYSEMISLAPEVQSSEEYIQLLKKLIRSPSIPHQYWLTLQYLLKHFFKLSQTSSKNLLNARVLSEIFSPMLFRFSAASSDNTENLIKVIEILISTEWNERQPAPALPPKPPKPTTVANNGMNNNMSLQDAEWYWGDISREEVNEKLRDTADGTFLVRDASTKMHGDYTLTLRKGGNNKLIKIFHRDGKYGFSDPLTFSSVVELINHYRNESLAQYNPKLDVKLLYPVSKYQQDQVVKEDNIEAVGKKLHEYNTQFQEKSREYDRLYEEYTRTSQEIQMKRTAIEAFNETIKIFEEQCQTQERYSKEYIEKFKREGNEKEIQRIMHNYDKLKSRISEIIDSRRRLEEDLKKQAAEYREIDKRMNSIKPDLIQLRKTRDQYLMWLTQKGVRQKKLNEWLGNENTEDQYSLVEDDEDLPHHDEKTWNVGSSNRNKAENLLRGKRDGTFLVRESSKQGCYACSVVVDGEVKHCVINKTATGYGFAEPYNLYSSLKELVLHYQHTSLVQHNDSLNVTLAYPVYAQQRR

| Compound | IC50 [nM] |
| --- | --- |
| Cc1nnc(-c2cc(N3CCOCC3)cc3c2nc(C)n3-c2ccnc3c(Cl)c(F)ccc23)[nH]1 [Example 52, 4-(1-(8-chloro-7-fluoroquinolin-4-yl)-2-methyl-4-(5-methyl-4H-1,2,4-triazol-3-yl)-1H-benzo[d]imidazol-6-yl)morpholine] | 15 |
| CCCc1nc2c(-c3nnc[nH]3)cc(N3CCOCC3)cc2n1-c1ccnc2c(F)cccc12 (atropisomer, axis not shown) [Compound 354, 4-[3-(8-fluoroquinolin-4-yl)-2-propyl-7-(4H-1,2,4-triazol-3-yl)benzimidazol-5-yl]morpholine] | 8 |
| N#Cc1ncc(-c2cc(N3CCOCC3)cc3c2ncn3-c2ccnc3c(F)ccc(F)c23)[nH]1 [Compound 394, 5-(1-(5,8-Difluoroquinolin-4-yl)-6-morpholino-1H-benzo[d]imidazol-4-yl)-1H-imidazole-2-carbonitrile] | 860 |
| Fc1ccc(F)c2c(-n3c(CC4CC4)nc4c(-c5ncco5)cc(N5CCOCC5)cc43)ccnc12 [Example 221, 4-[2-(cyclopropylmethyl)-3-(5,8-difluoroquinolin-4-yl)-7-(1,3-oxazol-2-yl)benzimidazol-5-yl]morpholine] | 11 |
| Cc1nc2c(-c3nnc[nH]3)cc(N3CCOC[C@H]3C)cc2n1-c1ccnc2c(Cl)cccc12 [Example 100, (3R)-4-[3-(8-chloroquinolin-4-yl)-2-methyl-7-(4H-1,2,4-triazol-3-yl)benzimidazol-5-yl]-3-methylmorpholine] | 43 |
| CCCc1nc2c(-c3nnc[nH]3)cc(N3CCOCC3)cc2n1-c1ccnc2c(Cl)cccc12 [Compound 1, 4-(1-(8-chloroquinolin-4-yl)-2-propyl-4-(4H-1,2,4-triazol-3-yl)-1H-benzo[d]imidazol-6-yl)morpholine 2,2,2-trifluoroacetate] | 4 |
| CC(C)Cc1nc2c(-c3ncco3)cc(N3CCOCC3)cc2n1-c1ccnc2c(F)ccc(F)c12 [Example 219, 4-[3-(5,8-difluoroquinolin-4-yl)-2-(2-methylpropyl)-7-(1,3-oxazol-2-yl)benzimidazol-5-yl]morpholine] | 8 |
| Fc1ccc2c(-n3c(C4CC4)nc4c(-c5nnc(Cl)[nH]5)cc(N5CCOCC5)cc43)ccnc2c1Cl [Example 173, 4-(4-(5-chloro-4H-1,2,4-triazol-3-yl)-1-(8-chloro-7-fluoroquinolin-4-yl)-2-cyclopropyl-1H-benzo[d]imidazol-6-yl)morpholine] | 140 |
| Cc1nc2c(-c3ncco3)cc(N3CCOCC3)cc2n1-c1ccnc2c(Cl)cccc12 [Example 204, 4-[3-(8-chloroquinolin-4-yl)-2-methyl-7-(1,3-oxazol-2-yl)benzimidazol-5-yl]morpholine] | 8 |
| Cc1nnc(-c2cc(N3CCOCC3)cc3c2nc(C)n3-c2ccnc3c(Cl)cc(F)cc23)[nH]1 [Example 18, 4-(1-(8-chloro-6-fluoroquinolin-4-yl)-2-methyl-4-(5-methyl-4H-1,2,4-triazol-3-yl)-1H-benzo[d]imidazol-6-yl)morpholine] | 63 |
| CCc1nc2c(-c3ncc[nH]3)cc(N3CCOCC3)cc2n1-c1ccnc2c(F)ccc(F)c12 (atropisomer, axis not shown) [Compound 370, 4-(1-(5,8-difluoroquinolin-4-yl)-2-ethyl-4-(1H-imidazol-2-yl)-1H-benzo[d]imidazol-6-yl)morpholine] | 13 |
| Cc1nc2c(-c3nnc(N)s3)cc(N3CCOCC3)cc2n1-c1ccnc2cc(F)ccc12 [Example 165, 5-(1-(7-fluoroquinolin-4-yl)-2-methyl-6-morpholino-1H-benzo[d]imidazol-4-yl)-1,3,4-thiadiazol-2-amine] | 720 |
| COC(C)c1nc2c(-c3nnc[nH]3)cc(N3CCOCC3)cc2n1-c1ccnc2c(Cl)cccc12 (stereo not shown) [Example 12, 4-(1-(8-chloroquinolin-4-yl)-2-(1-methoxyethyl)-4-(4H-1,2,4-triazol-3-yl)-1H-benzo[d]imidazol-6-yl)morpholine] | 43 |
| Cc1cc(-n2c(C)nc3c(-c4nnn[nH]4)cc(N4CCOCC4)cc32)c2ccccc2n1 [Example 160, 4-(2-methyl-1-(2-methylquinolin-4-yl)-4-(1H-tetrazol-5-yl)-1H-benzo[d]imidazol-6-yl)morpholine] | 470 |
| Clc1cccc2c(-n3c(CC4CC4)nc4c(-c5nnc[nH]5)cc(N5CCOCC5)cc43)ccnc12 [Example 32, 4-(1-(8-chloroquinolin-4-yl)-2-(cyclopropylmethyl)-4-(4H-1,2,4-triazol-3-yl)-1H-benzo[d]imidazol-6-yl)morpholine] | 9 |
| Cc1nc2c(-c3nnc(Cl)[nH]3)cc(N3CCOCC3)cc2n1-c1ccnc2c(Cl)cccc12 (atropisomer, axis not shown) [Compound 359, 4-[3-(8-chloroquinolin-4-yl)-7-(5-chloro-4H-1,2,4-triazol-3-yl)-2-methylbenzimidazol-5-yl]morpholine] | 1200 |
| Cc1cc(-n2c(C)nc3c(-c4nnc[nH]4)cc(N4CCOCC4)cc32)c2cccc(C(F)(F)F)c2n1 [Example 60, 4-[2-methyl-3-[2-methyl-8-(trifluoromethyl)quinolin-4-yl]-7-(4H-1,2,4-triazol-3-yl)benzimidazol-5-yl]morpholine] | 30 |
| Cc1nc2c(-c3nnc[nH]3)cc(N3CCOCC3)cc2n1-c1cc(-c2cscn2)nc2ccccc12 [Example 103, 4-(2-methyl-1-(2-(thiazol-4-yl)quinolin-4-yl)-4-(4H-1,2,4-triazol-3-yl)-1H-benzo[d]imidazol-6-yl)morpholine] | 9 |
| CC(C)Cc1nc2c(-c3nnc[nH]3)cc(N3CCOCC3)cc2n1-c1ccnc2c(Cl)cccc12 [Example 50, 4-(1-(8-chloroquinolin-4-yl)-2-isobutyl-4-(4H-1,2,4-triazol-3-yl)-1H-benzo[d]imidazol-6-yl)morpholine] | 16 |
| Clc1cccc2c(-n3c(C4CNC4)nc4c(-c5nnc[nH]5)cc(N5CCOCC5)cc43)ccnc12 [Example 132, 4-[2-(azetidin-3-yl)-3-(8-chloroquinolin-4-yl)-7-(4H-1,2,4-triazol-3-yl)benzimidazol-5-yl]morpholine] | 380 |
| CCCc1nc2c(-c3ncco3)cc(N3CCOCC3)cc2n1-c1ccnc2c(Cl)cc(F)cc12 [Example 222, 4-[3-(8-chloro-6-fluoroquinolin-4-yl)-7-(1,3-oxazol-2-yl)-2-propylbenzimidazol-5-yl]morpholine] | 12 |
| Cc1nc2c(-c3nnc[nH]3)cc(N3CCOCC3)cc2n1-c1ccnc2c(C(F)(F)F)cccc12 [Example 108, 4-[2-methyl-7-(4H-1,2,4-triazol-3-yl)-3-[8-(trifluoromethyl)quinolin-4-yl]benzimidazol-5-yl]morpholine] | 26 |

Continued, values first:

| IC50 [nM] | Compound |
| --- | --- |
| 3800 | Cc1ncc(-c2cc(N3CCOCC3)cc3c2nc(C)n3-c2ccnc3c(Cl)cccc23)s1 [Example 297, 4-[3-(8-chloroquinolin-4-yl)-2-methyl-7-(2-methyl-1,3-thiazol-5-yl)benzimidazol-5-yl]morpholine] |
| 4 | Cc1nc2c(-c3cnc(Cl)[nH]3)cc(N3CCOCC3)cc2n1-c1ccnc2c(Cl)cccc12 [Example 278, 4-[7-(2-chloro-1H-imidazol-5-yl)-3-(8-chloroquinolin-4-yl)-2-methylbenzimidazol-5-yl]morpholine] |
| 2500 | Cc1nc2c(-c3cccc(N(C)C)c3)cc(N3CCOCC3)cc2n1-c1ccnc2c(Cl)cccc12 [Example 316, 3-(1-(8-chloroquinolin-4-yl)-2-methyl-6-morpholino-1H-benzo[d]imidazol-4-yl)-N,N-dimethylaniline] |
| 11 | c1ccc2c(-n3cnc4c(-c5nnc[nH]5)cc(N5CCOCC5)cc43)cc(-c3cc[nH]n3)nc2c1 [Example 383, 4-(1-(2-(1H-pyrazol-3-yl)quinolin-4-yl)-4-(4H-1,2,4-triazol-3-yl)-1H-benzo[d]imidazol-6-yl)morpholine] |
| 4 | Cc1csc(-c2cc(N3CCOCC3)cc3c2nc(C)n3-c2ccnc3c(Cl)ccc(F)c23)n1 [Example 238, 4-[3-(8-chloro-5-fluoroquinolin-4-yl)-2-methyl-7-(4-methyl-1,3-thiazol-2-yl)benzimidazol-5-yl]morpholine] |
| 35 | Cc1nc2c(-c3cnn[nH]3)cc(N3CCOCC3)cc2n1-c1ccnc2c(F)ccc(F)c12 [Example 377, 4-(1-(5,8-difluoroquinolin-4-yl)-2-methyl-4-(1H-1,2,3-triazol-5-yl)-1H-benzo[d]imidazol-6-yl)morpholine] |
| 38 | Cc1nc2c(-c3cnc(Cl)[nH]3)cc(N3CCOCC3)cc2n1-c1ccnc2cc(F)ccc12 [Example 293, 4-[7-(2-chloro-1H-imidazol-5-yl)-3-(7-fluoroquinolin-4-yl)-2-methylbenzimidazol-5-yl]morpholine] |
| 370 | Cc1nc2c(-c3cnc(Cl)[nH]3)cc(N3CCOCC3)cc2n1-c1ccnc2ccccc12 [Example 306, 4-[7-(2-chloro-1H-imidazol-5-yl)-2-methyl-3-quinolin-4-ylbenzimidazol-5-yl]morpholine] |
| 6 | Fc1ccc(Cl)c2nccc(-n3c(C4CC4)nc4c(-c5ncco5)cc(N5CCOCC5)cc43)c12 [Example 242, 4-[3-(8-chloro-5-fluoroquinolin-4-yl)-2-cyclopropyl-7-(1,3-oxazol-2-yl)benzimidazol-5-yl]morpholine] |
| 13 | Cc1nc2c(-c3cc[nH]c3)cc(N3CCOCC3)cc2n1-c1ccnc2c(Cl)cccc12 [Example 263, 4-[3-(8-chloroquinolin-4-yl)-2-methyl-7-(1H-pyrrol-3-yl)benzimidazol-5-yl]morpholine] |
| 240 | Cc1nnc(-c2cc(N3CCOCC3)cc3c2ncn3-c2cc(-c3cn[nH]c3)nc3ccccc23)[nH]1 [Example 380, 4-(1-(2-(1H-pyrazol-4-yl)quinolin-4-yl)-4-(5-methyl-4H-1,2,4-triazol-3-yl)-1H-benzo[d]imidazol-6-yl)morpholine] |
| 417 | Cc1nc2c(-c3ccccn3)cc(N3CCOCC3)cc2n1-c1ccnc2c(Cl)cccc12 [Example 323, 4-[3-(8-chloroquinolin-4-yl)-2-methyl-7-pyridin-2-ylbenzimidazol-5-yl]morpholine] |
